From paper PMC8921294, “Inhibition of mitochondrial LonP1 protease by allosteric blockade of ATP binding and hydrolysis via CDDO and its derivatives” (The Journal of Biological Chemistry, 2022)
Residue numbers refer to the chain shown, from its start.

Columns and labels:
LonP1 C576S = molecular target: T1, LonP1 C576S (Homo sapiens, UniProt P36776, C576S); assay: Endpoint ATPase assay, LonP1 C576S; type: biochemical
T1 construct: hexa-histidine (N); made in house; host or cells: Rosetta 2 E. coli
T1 sequence (P36776 68-959 C576S): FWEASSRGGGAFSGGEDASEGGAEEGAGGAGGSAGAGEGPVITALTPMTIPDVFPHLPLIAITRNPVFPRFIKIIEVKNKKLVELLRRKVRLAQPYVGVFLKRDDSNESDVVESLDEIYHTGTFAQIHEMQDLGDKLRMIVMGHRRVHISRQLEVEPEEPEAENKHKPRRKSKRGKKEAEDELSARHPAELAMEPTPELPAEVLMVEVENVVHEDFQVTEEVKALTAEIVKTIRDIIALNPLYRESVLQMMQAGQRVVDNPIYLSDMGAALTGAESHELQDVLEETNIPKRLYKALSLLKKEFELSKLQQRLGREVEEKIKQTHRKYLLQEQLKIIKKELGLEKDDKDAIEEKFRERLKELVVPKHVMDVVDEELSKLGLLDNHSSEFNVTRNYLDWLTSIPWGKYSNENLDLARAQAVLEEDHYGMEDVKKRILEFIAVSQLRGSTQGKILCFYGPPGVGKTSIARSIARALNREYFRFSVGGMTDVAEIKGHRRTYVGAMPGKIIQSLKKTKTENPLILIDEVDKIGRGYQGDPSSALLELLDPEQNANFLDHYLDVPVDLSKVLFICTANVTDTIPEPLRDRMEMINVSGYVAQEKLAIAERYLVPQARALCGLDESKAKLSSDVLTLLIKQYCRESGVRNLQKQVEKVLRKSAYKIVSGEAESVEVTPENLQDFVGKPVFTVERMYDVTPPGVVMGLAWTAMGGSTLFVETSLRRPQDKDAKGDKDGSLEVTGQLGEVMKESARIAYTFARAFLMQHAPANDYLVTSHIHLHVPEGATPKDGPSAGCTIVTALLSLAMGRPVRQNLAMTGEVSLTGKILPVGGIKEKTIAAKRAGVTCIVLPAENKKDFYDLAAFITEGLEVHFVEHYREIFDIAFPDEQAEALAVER
Method: (§1) Human mitochondrial LonP1 and mutants lacking the predicted mitochondrial targeting sequence were fused to an N-terminal hexa-histidine affinity tag, expressed in Rosetta 2 E. Coli, and purified using a nickel agarose column as previously described ([72]) and protein concentration and buffer exchange carried out using Amicon Ultra centrifugal filtration. LonP1 mutant constructs were obtained from the PCR-based QuikChange Site-Directed Mutagenesis Kit.
(§2) ADP-Glo (Promega) assays were performed according to the manufacturer's protocols. Purified wild-type or mutant LonP1 (400 nM monomer), the 26S proteasome (3 nM), or no enzyme controls were preincubated in 96-well plates (60 min, 25 °C) with ten different concentrations of CDDO and its derivatives, TP-82, enoxolone (5 μM) or DMSO vehicle control in buffer (40 mM Tris-HCl (pH 7.5), 20 mM MgCl2, 0.1 mg/ml BSA and 5% DMSO). The 26S and 20S proteasome were also assayed at 0, 0.75, 1.5, 3, 6, and 12 nM in the absence of CDDO derivatives. […] Assay reagents were used to quench further ATPase activity and generate luminescence signals proportional to the concentration of ADP formed. Background (no enzyme control) luminescence values were subtracted, and resultant values were reported as a percentage of the no drug control (100%). […]

LonP1 F547A/C637V = molecular target: T2, LonP1 F547A/C637V (Homo sapiens, UniProt P36776, C637V/F547A); assay: Endpoint ATPase assay, LonP1 F547A/C637V; type: biochemical
T2 construct: hexa-histidine (N); made in house; host or cells: Rosetta 2 E. coli
T2 sequence (P36776 68-959 F547A/C637V): T1 sequence (P36776 68-959 C576S) with F480A, S509C, C570V
Method: as §1, §2

- Fold increase in inhibition compared with WT (LonP1 C576S): 1.2
- IC50 (LonP1 C576S; end-point ATPase assay, N = 1, read-out: CDDO IC50): 11.9 µM
- Fold increase in inhibition compared with WT (LonP1 F547A/C637V): 7.4
- IC50 (LonP1 F547A/C637V; end-point ATPase assay, read-out: CDDO IC50): 1.9 ± 0.3 µM
Compound: CC1(C)CC[C@]2(C(=O)O)CC[C@]3(C)[C@H](C(=O)C=C4[C@@]5(C)C=C(C#N)C(=O)C(C)(C)[C@@H]5CC[C@]43C)[C@@H]2C1 [CDDO, 2-cyano-3,12-dioxooleana-1,9(11)-dien-28-oic acid]
